The source made the active and inactive calls.
Tests used:
Format in all cases: functional, organism-based
Acinetobacter baumannii = assay: Antibacterial activity against Acinetobacter baumannii […] DSM 30008 assessed as inhibition of bacterial growth incubated for overnight by serial dilution assay
Mucor hiemalis = assay: Antifungal activity against Mucor hiemalis DSM 2656 assessed as inhibition of fungal growth incubated for overnight by serial dilution assay
Escherichia coli = assay: Antibacterial activity against Escherichia coli DSM 1116 assessed as inhibition of bacterial growth incubated for overnight by serial dilution assay
[1] = tested on: Mycolicibacterium smegmatis; assay: Antibacterial activity against Mycobacterium smegmatis ATCC 700084 assessed as inhibition of bacterial growth incubated for overnight by serial dilution assay
Wickerhamomyces anomalus = assay: Antifungal activity against Pichia anomala DSM 6766 assessed as inhibition of fungal growth incubated for overnight by serial dilution assay
[2] = tested on: Chromobacterium violaceum; assay: Antibacterial activity against Chromobacterium violaceum DSM 30191 assessed as inhibition of bacterial growth incubated for overnight by serial dilution assay
Candida albicans = assay: Antifungal activity against Candida albicans DSM 1665 assessed as inhibition of fungal growth incubated for overnight by serial dilution assay
Bacillus subtilis = assay: Antibacterial activity against Bacillus subtilis DSM 10 assessed as inhibition of bacterial growth incubated for overnight by serial dilution assay
Pseudomonas aeruginosa = assay: Antibacterial activity against Pseudomonas aeruginosa DSM PA14 assessed as inhibition of bacterial growth incubated for overnight by serial dilution assay
Rhodotorula glutinis = assay: Antifungal activity against Rhodotorula glutinis DSM 10134 assessed as inhibition of fungal growth incubated for overnight by serial dilution assay
[3] = tested on: Schizosaccharomyces pombe; assay: Antifungal activity against Schizosaccharomyces pombe DSM 70572 assessed as inhibition of fungal growth incubated for overnight by serial dilution assay
Staphylococcus aureus = assay: Antibacterial activity against Staphylococcus aureus DSM 346 assessed as inhibition of bacterial growth incubated for overnight by serial dilution assay

Measured: Activity

CC(C)[C@H]1CC[C@H](C)C2=C1C=C(C(=O)O)CC2
inactive: all assays above

CC(C)[C@H]1CC[C@H](C)c2c(O)c(O)c(C=O)c(C3=C(O)C(=O)C(c4c(C=O)c(O)c(O)c5c4[C@@H](C(C)C)CC[C@@H]5C)=C(O)C3=O)c21
inactive: all assays above

CC(C)[C@H]1CC[C@H](C)c2c(O)c(O)c(C=O)c(C3=C(O)C(=O)C4=C(OCc5c(O)c(O)c6c(c54)[C@@H](C(C)C)CC[C@@H]6C)C3=O)c21
inactive: all assays above

CC(C)[C@H]1CC[C@H](C)c2c(O)c(O)c(CO)c(C3=C(O)C(=O)C4=C(OCc5c(O)c(O)c6c(c54)[C@@H](C(C)C)CC[C@@H]6C)C3=O)c21
inactive: all assays above

CC1=C(O)C(=O)C(c2c(C=O)c(O)c(O)c3c2[C@@H](C(C)C)CC[C@@H]3C)=C(O)C1=O
inactive: all assays above

CC(C)[C@H]1CC[C@H](C)c2c(O)c(O)c3c(c21)C1=C(OC3)C(=O)C2=C(OCc3c(O)c(O)c4c(c32)[C@@H](C(C)C)CC[C@@H]4C)C1=O
inactive: all assays above

O=c1cc(O)cc(/C=C/c2ccc(O)c(O)c2)o1
inactive: all assays above

CC(C)[C@H]1CC[C@H](C)c2c(O)c(O)c(C=O)c(C3=C(O)C(=O)C=C(O)C3=O)c21
inactive: all assays above

O=c1cc(O)cc(C2c3c(cc(/C=C/c4ccc(O)c(O)c4)oc3=O)OC2c2ccc(O)c(O)c2)o1 (stereo not given)
inactive: all assays above

Cc1c(O)c(O)c(C(C)C)c2c1CCC(C(=O)O)=C2
inactive: all assays above

Reference: ChEMBL document CHEMBL5233291, “Calamene-Type Sesqui-, Mero-, and Bis-sesquiterpenoids from Cultures of Heimiomyces sp., a Basidiomycete Collected in Africa” (J Nat Prod, 2023)
